According to patent US6818407B2, “Anti-endotoxic antimicrobial cationic peptides and methods of use therfor” (priority 1998, dated 2004):

Tests used:
[1] = system: mutant (Nal B, H744) of P. aeruginosa; test: microbe, parasite or virus in culture; format: cell-based
Method in brief: (§1)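 Checkerboard titration in Mueller Hinton broth, peptide against carbenicillin or ciprofloxacin, inoculum 10 μl of 10^−4 dilution of overnight culture, 18-24 h at 37 °C. Combination MIC is the lowest concentration reducing growth >50%. FIC index = A/MIC A + B/MIC B, with ≤~0.5 synergy, 1.0 additivity, >1.0 antagonism.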

[2] = system: β-lactamase derepressed mutant (H547) of P. aeruginosa; test: microbe, parasite or virus in culture; format: cell-based; settings: P. aeruginosa H547
Method in brief: as §1

[3] = system: Pseudomonas aeruginosa strain M2; test: Protection of neutropenic CD-1 mice challenged with Pseudomonas aeruginosa; format: in vivo; parameters: Survival post bacterial challenge, surviving mice: reference not given here; settings: for Survival (%) post bacterial challenge: PBS 8
Method in brief: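 Neutropenia induced by three i.p. cyclophosphamide doses ([…], alternate days); mice then infected i.p. with 200-300 organisms/mouse. Peptides (200 µg/mouse = 8 mg/kg) in buffered citrate given i.p. at 30 min (single) or 30 min and 16 hrs (double) post-challenge; PBS control; mean of 2 experiments.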

P. aeruginosa = test: MIC, broth microdilution assay in polypropylene microtiter trays; format: cell-based; settings: average of three separate experiments
Method in brief: (§2)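 Each peptide's inhibitory endpoint is based on optical density: absence of any OD change for the chosen duration defines the minimal inhibitory concentration.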

S. aureus = test: as above; format: cell-based; settings: average of three separate experiments
Method in brief: as §2

E. coli [4] = test: as above; format: cell-based; settings: average of three separate experiments
Method in brief: as §2

S. aureus K147 = test: as above; format: cell-based; settings: average of three separate experiments
Method in brief: as §2

Salmonella typhi = test: Synergy study (checkerboard titration) with hen white lysozyme; format: cell-based
P. aeruginosa (H103) = test: as above; format: cell-based
E. coli [5] = test: as above; format: cell-based
[6] = cationic peptide concentration, combined with lysozyme
[7] = lysozyme concentration, combined with the peptide

## CC[C@H](C)[C@H](NC(=O)CNC(=O)[C@@H](NC(=O)[C@H](CCCCN)NC(=O)[C@H](CCCCN)NC(=O)[C@H](Cc1ccccc1)NC(=O)[C@H](CC(C)C)NC(=O)[C@H](CCCCN)NC(=O)[C@H](Cc1c[nH]c2ccccc12)NC(=O)[C@@H](N)CCCCN)[C@@H](C)CC)C(=O)NCC(=O)N[C@@H](C)C(=O)N[C@H](C(=O)N[C@@H](CC(C)C)C(=O)N[C@@H](CCCCN)C(=O)N[C@H](C(=O)N[C@@H](CC(C)C)C(=O)N[C@@H](CCCCN)C(=O)N[C@H](C(=O)N[C@@H](CC(C)C)C(=O)N[C@H](C(=O)N[C@H](C(=O)NCC(=O)N[C@@H](CC(C)C)C(=O)N1CCC[C@H]1C(=O)N[C@@H](C)C(=O)N[C@@H](CC(C)C)C(=O)N[C@@H](CCCCN)C(=O)N[C@@H](CC(C)C)C(=O)N[C@H](C(=O)N[C@@H](CC(C)C)C(=O)N[C@@H](CCCCN)C(=O)O)[C@@H](C)O)[C@@H](C)O)[C@@H](C)O)C(C)C)C(C)C)C(C)C [CM4]
[1]; ciprofloxacin with peptide at concentration (A), Nal B, H744
  (B) MIC of Cipro when combined with peptide: .125 µg/mL
[1]; peptide + ciprofloxacin, Nal B, H744
  FIC index: .75
[1]; peptide alone, P. aeruginosa mutant Nal B, H744 (Table 5)
  MIC A MIC of Peptides: 4 µg/mL
[1]; peptide concentration in combination with ciprofloxacin, Nal B, H744
  (A) Peptide doses together with Cipro: 1 µg/mL
[2]; Carbenicillin with peptide at concentration (A)
  (B) MIC of Carb when combined with peptide: 64 µg/mL
[2]; peptide alone
  MIC A MIC of Peptides: 4 µg/mL
[2]; peptide concentration in combination with Carbenicillin
  (A) Peptide doses together with Carb: 1 µg/mL
[3]; double dose (200 μg per mouse i.p. at 30 min and 16 hrs), 16 hr
  Survival post bacterial challenge, surviving mice: 14
[3]; double dose, 24 hr
  Survival post bacterial challenge, surviving mice: 14
[3]; double dose, 41 hr
  Survival post bacterial challenge, surviving mice: 7
[3]; double dose, 48 hr
  Survival post bacterial challenge, surviving mice: 2
[3]; double dose, 64 hr
  Survival post bacterial challenge, surviving mice: 2
  Survival (%) post bacterial challenge: 14%
[3]; double dose, 72 hr
  Survival post bacterial challenge, surviving mice: 2
  Survival (%) post bacterial challenge: 14%
[3]; double dose, 96 hr
  Survival post bacterial challenge, surviving mice: 2
  Survival (%) post bacterial challenge: 14%
[3]; single dose (200 μg per mouse i.p. at 30 min), 16 hr
  Survival post bacterial challenge, surviving mice: 15
[3]; single dose, 24 hr
  Survival post bacterial challenge, surviving mice: 15
[3]; single dose, 41 hr
  Survival post bacterial challenge, surviving mice: 9
[3]; single dose, 48 hr
  Survival post bacterial challenge, surviving mice: 3
[3]; single dose, 64 hr
  Survival post bacterial challenge, surviving mice: 1
  Survival (%) post bacterial challenge: 6%
[3]; single dose, 72 hr
  Survival post bacterial challenge, surviving mice: 1
  Survival (%) post bacterial challenge: 6%
[3]; single dose, 96 hr
  Survival post bacterial challenge, surviving mice: 1
  Survival (%) post bacterial challenge: 16%
P. aeruginosa
  MIC P. aeruginosa: 4 µg/mL
S. aureus
  MIC S. aureus: 8 µg/mL
E. coli [4]
  MIC E. coli: 4 µg/mL
S. aureus K147
  MIC S. aureus K147: 8 µg/mL
Salmonella typhi
  FIC for combination of cationic peptide and lysozyme: 0.50
Salmonella typhi; [6]
  Lowest [CP] showing synergy: 2.61 µg/mL
Salmonella typhi; [7]
  Lowest [Lyso] showing synergy: 7.8 µg/mL
P. aeruginosa (H103)
  FIC for combination of cationic peptide and lysozyme: 0.75
P. aeruginosa (H103); [6]
  Lowest [CP] showing synergy: 2.6 µg/mL
P. aeruginosa (H103); [7]
  Lowest [Lyso] showing synergy: 250 µg/mL
E. coli [5]
  FIC for combination of cationic peptide and lysozyme: 0.07
E. coli [5]; [6]
  Lowest [CP] showing synergy: 1.3 µg/mL
E. coli [5]; [7]
  Lowest [Lyso] showing synergy: 7.8 µg/mL
